We go through 9 molecules from patent US20260294769A1, “ASCORBIC ACID DERIVATIVES AND COSMETIC THEREOF” (SEIWA KASEI COMPANY, LIMITED, priority 2023, published 2026).

Series [1] is described as follows: Stability Test-1: coloration of 1% aqueous solutions adjusted to pH 7 stored at 50° C. The note with it: 1% aqueous solution pH 7, 50° C., 10 panelists. The format is physicochemical. The procedure:
(§1) For each of the samples of Synthesis Examples 1 to 6, 1% aqueous solutions were adjusted to pH 3, 5, 7, 8, and 9 with a dilute potassium hydroxide aqueous solution, and then placed in 50 mL screw tubes and sealed. […] Furthermore, the odor and coloration of the samples adjusted to pH 7 were evaluated based on the following methods and criteria, and the results are shown in Table 11.
• Evaluation was made by 10 panelists according to the following criteria. • 3: Almost no change compared to immediately after preparation. • 2: Color changes compared to immediately after preparation. • 1: Strongly colored compared to immediately after preparation. • Based on the results of the above evaluation, the following classification was made: […]

Series [2] is described as follows: Stability Test-1: odor of 1% aqueous solutions adjusted to pH 7 stored at 50° C. The class given is physicochemical. The note with it: 1% aqueous solution pH 7, 50° C., 10 panelists. The procedure:
as §1
(§2) • Evaluation was made by 10 panelists according to the following criteria. • 3: Almost odorless. • 2: There is a slight strange odor. • 1: A strong odor is detected. • Based on the results of the above evaluation, the following classification was made: • ◯: Total score of 10 panelists is 25 or more • Δ: Total score of 10 panelists is 16-24 • x: The total score of 10 panelists is 15 or less

The nature of series [3]: Stability Test-1: residual rate of 1% aqueous solutions stored at 50° C. (HPLC). Particulars: water, 1% aqueous solution; for remaining at 336 h: after 2 weeks, read-out: Residual Rate; for remaining at 672 h: after 4 weeks. The format is physicochemical. The procedure:
as §1
• ⊚: 80% or more • ◯: 50% or more, less than 80% • Δ: 30% or more, less than 50% • x: Less than 30%

Series [4] can be described thus: Stability Test-2: odor of cream stored at 50° C. The class given is physicochemical. The note with it: 10 panelists.
Excerpt: as §2
(§3) For each of the samples of Synthesis Examples 9 to 32, (a) and (b) shown in Table 12 were each heated and mixed. After cooling, (c) shown in Table 12 was added to prepare a cream with a pH of 7 or 9. […] The odor and coloration were also evaluated according to the same method and criteria as in Test Example 1. The results regarding the residual rate are shown in Tables 13 and 14, and the results regarding the odor and coloration are shown in Tables 15 and 16.

The nature of series [5]: Stability Test-2: residual rate in cream of pH 7 or 9 stored at 50° C. The format is physicochemical. The procedure:
as §3

Series [6] can be described thus: Stability Test-2: coloration of cream stored at 50° C. The class given is physicochemical. Particulars: 10 panelists.
Excerpt: • Evaluation was made by 10 panelists according to the following criteria. • 3: Almost no change compared to immediately after preparation. • 2: Color changes compared to immediately after preparation. • 1: Strongly colored compared to immediately after preparation. • Based on the results of the above evaluation, the following classification was made:
as §3

The subject of series [7] is Normal human dermal fibroblasts (NHDF). The series can be described thus: Hyaluronic acid production promoting effect (ELISA of hyaluronic acid in supernatant). The class given is cell-based. Particulars: 10 mM or less, 48 hours, control group set to 100%, N=3. The procedure: Normal human dermal fibroblasts (NHDF) were prepared in D-MEM containing 5% (v/v) fetal bovine serum to a cell density of 2.5×10^4 cells/well, and then pre-incubated on a 96-well plate for 24 hours. After removing the medium, samples prepared in serum-free D-MEM were added to each well and cultured for 48 hours. After the culture was completed, the amount of hyaluronic acid in the supernatant was quantified by ELISA. Measurements were performed in triplicate (N=3).
The amount of hyaluronic acid produced when the sample was measured at a concentration of 10 mM or less was compared with that of the control group, and the results (% values when the control group is set to 100%) are shown in Tables 18 to 20 based on the following criteria.
Background: ELISA stands for enzyme-linked immunosorbent assay.

Where [8] appears, read: cream pH 7, 50° C., after 2 weeks, 20160 min.
Where [9] appears, read: cream pH 7, 50° C., after 4 weeks, 40320 min.
The mark [10] stands for this setting: cream pH 9, 50° C., after 2 weeks, 20160 min.
The mark [11] stands for this setting: cream pH 9, 50° C., after 4 weeks, 40320 min.

The structures appear in SMILES notation. Read-outs that look alike come from different tables or passages of the source.

Consider `O=C1OC(C(O)CO)C2=C1OCCO2` (stereo not shown) [Synthesis Example 1, 2,3-O-(1,2-ethanediyl) ascorbic acid], for which the Coloration entry in series [1] (after 2 weeks) is “∘ (Total score of 10 panelists is 25 or more)”; in series [1] (after 4 weeks), “Δ (Total score of 10 panelists is 16-24)”. Further, the Odor result in series [2] (after 2 weeks) and in series [2] (after 4 weeks) was “∘ (Total score of 10 panelists is 25 or more)” each time. In addition, the remaining at 336 h in series [3] (pH 3, 50° C.) was at least 80%; in series [3] (pH 5, 50° C.), at least 80%; in series [3] (pH 7, 50° C.), 50 to 80%; in series [3] (pH 8, 50° C.) it was 30 to 50%; in series [3] (pH 9, 50° C.), below 30%. Besides, the remaining at 672 h is at least 80% in series [3] (pH 3, 50° C.); at least 80% in series [3] (pH 5, 50° C.); 30 to 50% in series [3] (pH 7, 50° C.); below 30% in series [3] (pH 8, 50° C.); below 30% in series [3] (pH 9, 50° C.).

For `O=C1OC(C(O)CO)C2=C1OCCCCO2` (stereo not shown) [Synthesis Example 3, 2,3-O-(1,4-butanediyl) ascorbic acid], the Coloration result in series [1] (after 2 weeks) and in series [1] (after 4 weeks) was “∘ (Total score of 10 panelists is 25 or more)” throughout. Moreover, the Odor entry in series [2] (after 2 weeks) and in series [2] (after 4 weeks) was “∘ (Total score of 10 panelists is 25 or more)” throughout. In addition, the remaining at 336 h in series [3] (pH 3, 50° C.) was at least 80%; in series [3] (pH 5, 50° C.), at least 80%; in series [3] (pH 7, 50° C.), at least 80%; in series [3] (pH 8, 50° C.), at least 80%; in series [3] (pH 9, 50° C.), 50 to 80%. The remaining at 672 h in series [3] (pH 3, 50° C.) was at least 80%; in series [3] (pH 5, 50° C.) it was at least 80%; in series [3] (pH 7, 50° C.) it was at least 80%; in series [3] (pH 8, 50° C.) it was 50 to 80%; in series [3] (pH 9, 50° C.) it was 30 to 50%.

Take `CCCC(=O)OCC(O)C1OC(=O)C2=C1OCCCO2` (stereo not shown) [Synthesis Example 20, 6-O-butanoyl-2,3-O-(1,3-propanediyl) ascorbic acid]: the Odor result is “◯ (Total score of 10 panelists is 25 or more)” in series [4] (after 2 weeks) and “Δ (Total score of 10 panelists is 16-24)” in series [4] (after 4 weeks). For the same molecule, the “Residual Rate” value in series [5] (setting [8]), in series [5] (setting [9]), in series [5] (setting [10]) and in series [5] (setting [11]) was “⊚ (95% or more)” throughout. Moreover, the Coloration entry in series [6] (after 2 weeks) and in series [6] (after 4 weeks) was “◯ (Total score of 10 panelists is 25 or more)” in each case. Moreover, the “Hyaluronic acid production-promoting effect” value in series [7] is recorded as “++ (120%<)”.

Turning to `CCCCCCCC(=O)OCC(O)C1OC(=O)C2=C1OCCCO2` (stereo not shown) [Synthesis Example 22, 6-O-octanoyl-2,3-O-(1,3-propanediyl) ascorbic acid], the values for the Odor entry in series [4] (after 2 weeks) and in series [4] (after 4 weeks) were “◯ (Total score of 10 panelists is 25 or more)” and “Δ (Total score of 10 panelists is 16-24)”, respectively. Moreover, the “Residual Rate” value in series [5] (setting [8]), in series [5] (setting [9]), in series [5] (setting [10]) and in series [5] (setting [11]) was “⊚ (95% or more)” in each case. The Coloration result in series [6] (after 2 weeks) and in series [6] (after 4 weeks) was “◯ (Total score of 10 panelists is 25 or more)” in each case. In addition, the “Hyaluronic acid production-promoting effect” value in series [7] was “++ (120%<)”.

Consider `CCCCCCCCCCCC(=O)OCC(O)C1OC(=O)C2=C1OCCCO2` (stereo not shown) [Synthesis Example 24, 6-O-lauroyl-2,3-O-(1,3-propanediyl) ascorbic acid], for which the Odor result is reported as “◯ (Total score of 10 panelists is 25 or more)” in series [4] (after 2 weeks) and “Δ (Total score of 10 panelists is 16-24)” in series [4] (after 4 weeks). Also, the “Residual Rate” value in series [5] (setting [8]), in series [5] (setting [9]), in series [5] (setting [10]) and in series [5] (setting [11]) was “⊚ (95% or more)” in each case. Moreover, the Coloration result in series [6] (after 2 weeks) and in series [6] (after 4 weeks) was “◯ (Total score of 10 panelists is 25 or more)” each time. Also, in series [7], the “Hyaluronic acid production-promoting effect” value is “++ (120%<)”.

With `CCCCCCCCCCCC(=O)OCC(OC(=O)CCCCCCCCCCC)C1OC(=O)C2=C1OCCCO2` (stereo not shown) [Synthesis Example 25, 5,6-O-dilauroyl-2,3-O-(1,3-propanediyl) ascorbic acid], the Odor result is given as “◯ (Total score of 10 panelists is 25 or more)” in series [4] (after 2 weeks) and “Δ (Total score of 10 panelists is 16-24)” in series [4] (after 4 weeks). The “Residual Rate” value in series [5] (setting [8]), in series [5] (setting [9]), in series [5] (setting [10]) and in series [5] (setting [11]) was “⊚ (95% or more)” throughout. Further, the figures for the Coloration result in series [6] (after 2 weeks) and in series [6] (after 4 weeks) were “◯ (Total score of 10 panelists is 25 or more)” and “Δ (Total score of 10 panelists is 16-24)”, respectively. In addition, the “Hyaluronic acid production-promoting effect” value in series [7] is “++ (120%<)”.

As to `CCCCCCCCCCCCCCCC(=O)OCC(O)C1OC(=O)C2=C1OCCCO2` (stereo not shown) [Synthesis Example 26, 6-O-palmitoyl-2,3-O-(1,3-propanediyl) ascorbic acid], the Odor entry in series [4] (after 2 weeks) was “◯ (Total score of 10 panelists is 25 or more)”; in series [4] (after 4 weeks), “Δ (Total score of 10 panelists is 16-24)”. Further, the “Residual Rate” value in series [5] (setting [8]) was “⊚ (95% or more)”; in series [5] (setting [9]) it was “⊚ (95% or more)”; in series [5] (setting [10]) it was “⊚ (95% or more)”; in series [5] (setting [11]), “◯ (85% or more, less than 95%)”. The Coloration result in series [6] (after 2 weeks) was “◯ (Total score of 10 panelists is 25 or more)”; in series [6] (after 4 weeks) it was “Δ (Total score of 10 panelists is 16-24)”. The “Hyaluronic acid production-promoting effect” value in series [7] was “++ (120%<)”.

For the molecule `CC(C)CCCCCCCCCCCCCCC(=O)OCC(O)C1OC(=O)C2=C1OCCCO2` (stereo not shown) [Synthesis Example 28, 6-O-isostearoyl-2,3-O-(1,3-propanediyl) ascorbic acid], the figures for the Odor result in series [4] (after 2 weeks) and in series [4] (after 4 weeks) were “◯ (Total score of 10 panelists is 25 or more)” and “Δ (Total score of 10 panelists is 16-24)”, respectively. For the same molecule, the “Residual Rate” value in series [5] (setting [8]), in series [5] (setting [9]), in series [5] (setting [10]) and in series [5] (setting [11]) was “⊚ (95% or more)” each time. Further, the Coloration result in series [6] (after 2 weeks) and in series [6] (after 4 weeks) was “◯ (Total score of 10 panelists is 25 or more)” in each case. For the same molecule, the “Hyaluronic acid production-promoting effect” value in series [7] was “++ (120%<)”.

In the case of `CC(C)CCCCCCCCCCCCCCC(=O)OCC(O)C1OC(=O)C2=C1OCCO2` (stereo not shown) [Synthesis Example 31, 6-O-isostearoyl-2,3-O-(1,2-ethanediyl) ascorbic acid], the figures for the Odor entry in series [4] (after 2 weeks) and in series [4] (after 4 weeks) were “◯ (Total score of 10 panelists is 25 or more)” and “Δ (Total score of 10 panelists is 16-24)”, respectively. Further, the “Residual Rate” value in series [5] (setting [8]), in series [5] (setting [9]), in series [5] (setting [10]) and in series [5] (setting [11]) was “⊚ (95% or more)” in each case. The Coloration result in series [6] (after 2 weeks) and in series [6] (after 4 weeks) was “◯ (Total score of 10 panelists is 25 or more)” each time. Also, in series [7], the “Hyaluronic acid production-promoting effect” value was “++ (120%<)”.
